# ChEMBL document CHEMBL1201862, “PubChem BioAssay data set” (2004)
# Calls of active or inactive are those of the source.
# Tests used:
# Cytochrome P450 2D6 = Cytochrome P450 2D6 (Homo sapiens, UniProt P10635);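 note: CYP2D6 member of a cytochrome P450 panel assay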
# Cytochrome P450 1A2 = target: T1, Cytochrome P450 1A2 (Homo sapiens, UniProt P05177);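 note: PubChem cytochrome P450 panel assay, CYP1A2 panel member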
# T1 sequence (P05177 whole entry): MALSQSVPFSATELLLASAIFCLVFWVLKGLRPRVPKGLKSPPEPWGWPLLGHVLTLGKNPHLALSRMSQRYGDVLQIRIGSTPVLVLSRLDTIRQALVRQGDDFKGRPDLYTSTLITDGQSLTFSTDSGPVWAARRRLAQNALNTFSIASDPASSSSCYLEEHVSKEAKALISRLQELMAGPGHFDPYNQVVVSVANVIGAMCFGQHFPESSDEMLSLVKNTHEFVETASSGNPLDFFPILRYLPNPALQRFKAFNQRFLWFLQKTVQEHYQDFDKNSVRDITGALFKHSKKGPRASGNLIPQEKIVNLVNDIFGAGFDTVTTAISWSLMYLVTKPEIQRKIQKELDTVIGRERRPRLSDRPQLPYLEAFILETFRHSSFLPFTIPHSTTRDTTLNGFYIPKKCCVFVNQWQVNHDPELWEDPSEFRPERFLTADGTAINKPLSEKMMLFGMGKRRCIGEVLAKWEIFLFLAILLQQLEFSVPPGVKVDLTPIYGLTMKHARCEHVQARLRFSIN
# Cytochrome P450 2C9 = Cytochrome P450 2C9 (Homo sapiens, UniProt P11712)
# Cytochrome P450 2C19 = Cytochrome P450 2C19 (Homo sapiens, UniProt P33261); assay: Cytochrome panel assay with activity outcomes. Panel member name: p450-cyp2c19 Compounds with AC50 equal or less than 10 uM are considered active; format: functional; details: read-out: AC50
# Streptococcus = assay: Group A Streptococcus viability loss, dose response, counter-screen for streptokinase expression inhibitor project, luminescence, BacTiterGlo (AID 1915); format: functional, organism-based;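 note: potency for reduction of bacterial viability or growth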
# H4 = assay: Luminescence Cell-Based Dose Response HTS to Identify Activators of 5'UTR Stem-Loop Driven Prion Protein mRNA Translation in H4 Neuroglioblastoma Cells. [Related pubchem assays: 1829 (Project Summary), 1814 (Primary HTS)]; format: functional; details: Homo sapiens
# [1] = Luminescence Cell-Based Dose Confirmation HTS to Identify Activators of 5'UTR Stem-Loop Driven Alpha-Synuclein mRNA Translation in H4 Neuroglioblastoma Cells. [Related pubchem assays: 1829 (Project Summary), 1814 (Primary HTS)]; format: functional
# Streptokinase A = target: T2, Streptokinase A (Streptococcus pyogenes serotype M1, UniProt P10520); assay: S. pyogenes streptokinase expression inhibitors, potency, dose response, plasminogen activation absorbance, OD405 (AID 1914); format: functional, Streptococcus pyogenes M1 GAS;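 note: secreted streptokinase activity via plasminogen activation per viability signal from cell pellet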
# T2 sequence (P10520 whole entry): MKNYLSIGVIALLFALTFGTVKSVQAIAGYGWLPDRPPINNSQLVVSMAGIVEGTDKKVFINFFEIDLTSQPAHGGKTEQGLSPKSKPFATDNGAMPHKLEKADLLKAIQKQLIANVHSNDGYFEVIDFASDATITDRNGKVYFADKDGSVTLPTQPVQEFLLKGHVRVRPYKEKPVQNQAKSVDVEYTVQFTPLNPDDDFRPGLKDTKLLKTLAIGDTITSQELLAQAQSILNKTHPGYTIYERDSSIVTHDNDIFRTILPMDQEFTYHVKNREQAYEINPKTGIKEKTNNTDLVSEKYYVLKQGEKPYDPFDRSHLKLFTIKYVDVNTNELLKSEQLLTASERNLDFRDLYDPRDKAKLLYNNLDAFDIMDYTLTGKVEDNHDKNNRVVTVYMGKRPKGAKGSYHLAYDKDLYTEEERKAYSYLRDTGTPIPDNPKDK
# [2] = tested on: Streptococcus sp. 'group A'; assay: growth inhibition of control SK(-) GAS strain, dose response, counter-screen for streptokinase expression inhibitor project, luminescence, kanamycin, BacTiterGlo, confirmation (AID 1900); format: functional, organism-based
# [3] = Luminescence Cell-Based Dose Response HTS to Identify Activators of Luciferase Translation or Activity in H4 […] Cells. [Related pubchem assays: 1829 (Project Summary), 1814 (Primary HTS)]; format: functional
# Cytochrome P450 3A4 = Cytochrome P450 3A4 (Homo sapiens, UniProt P08684);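 note: CYP3A4 tested as one member of a cytochrome P450 panel screen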
# Vero = assay: cells; format: functional; details: Chlorocebus sabaeus
# Leucine aminopeptidase = target: T3, Leucine aminopeptidase (Plasmodium falciparum 3D7, UniProt Q8IL11); assay: P. falciparum M17LAP inhibitors, primary screen, biochemical, fluorogenic H-Leu-NHMec substrate, 1536-well (AID 1619); format: functional
# T3 sequence (Q8IL11 whole entry): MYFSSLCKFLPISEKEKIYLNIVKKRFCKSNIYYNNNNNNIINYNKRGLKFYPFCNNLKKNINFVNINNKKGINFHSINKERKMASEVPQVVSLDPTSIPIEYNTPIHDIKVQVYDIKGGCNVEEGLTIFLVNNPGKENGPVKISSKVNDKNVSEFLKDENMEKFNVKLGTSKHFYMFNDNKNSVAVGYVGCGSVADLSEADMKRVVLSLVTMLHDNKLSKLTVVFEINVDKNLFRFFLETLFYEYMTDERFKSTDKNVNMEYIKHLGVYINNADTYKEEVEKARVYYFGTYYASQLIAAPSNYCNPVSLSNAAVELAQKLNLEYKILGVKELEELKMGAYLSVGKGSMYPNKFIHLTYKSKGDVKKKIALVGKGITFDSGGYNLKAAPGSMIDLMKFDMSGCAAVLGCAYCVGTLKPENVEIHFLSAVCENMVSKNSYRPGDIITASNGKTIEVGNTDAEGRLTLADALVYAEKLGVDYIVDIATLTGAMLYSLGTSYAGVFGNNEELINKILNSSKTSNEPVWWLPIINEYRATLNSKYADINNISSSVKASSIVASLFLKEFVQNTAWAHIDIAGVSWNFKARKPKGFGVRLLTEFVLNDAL
# [4] = target: T4, Replicative DNA helicase DnaB (Mycobacterium tuberculosis, UniProt P9WMR3); assay: DnaB intein splicing inhibitors, dose response, biochemical, cell-free fluorescence (AID 449749); format: functional
# T4 sequence (P9WMR3 whole entry): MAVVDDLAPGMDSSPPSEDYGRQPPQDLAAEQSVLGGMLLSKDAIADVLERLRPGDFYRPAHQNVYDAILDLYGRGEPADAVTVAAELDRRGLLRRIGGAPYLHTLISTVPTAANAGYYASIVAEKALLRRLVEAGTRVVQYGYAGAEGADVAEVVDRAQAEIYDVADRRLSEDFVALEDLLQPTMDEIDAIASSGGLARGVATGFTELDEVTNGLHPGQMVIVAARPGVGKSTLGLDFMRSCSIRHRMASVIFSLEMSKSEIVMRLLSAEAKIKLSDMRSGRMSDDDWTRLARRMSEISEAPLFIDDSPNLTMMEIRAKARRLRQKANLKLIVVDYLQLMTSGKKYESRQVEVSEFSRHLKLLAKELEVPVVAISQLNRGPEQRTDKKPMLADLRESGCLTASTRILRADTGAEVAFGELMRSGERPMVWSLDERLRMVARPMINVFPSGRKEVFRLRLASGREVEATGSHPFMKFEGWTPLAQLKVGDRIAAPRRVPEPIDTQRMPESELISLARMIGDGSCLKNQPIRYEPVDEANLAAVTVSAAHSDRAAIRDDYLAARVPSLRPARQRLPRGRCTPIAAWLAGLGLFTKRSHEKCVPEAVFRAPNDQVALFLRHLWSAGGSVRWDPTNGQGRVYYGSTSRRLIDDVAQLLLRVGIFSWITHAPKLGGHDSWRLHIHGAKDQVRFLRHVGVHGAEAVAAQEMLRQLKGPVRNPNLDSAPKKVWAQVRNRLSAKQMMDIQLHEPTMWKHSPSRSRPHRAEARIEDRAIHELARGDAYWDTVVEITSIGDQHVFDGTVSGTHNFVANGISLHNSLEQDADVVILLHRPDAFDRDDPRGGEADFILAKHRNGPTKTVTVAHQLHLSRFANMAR
# Protein RecA = target: T5, Protein RecA (Mycobacterium tuberculosis, UniProt P9WHJ3); assay: Fluorescence Cell-Free Homogeneous Dose Retest to Identify Inhibitors of RecA-Intein Splicing Activity. [Related pubchem assays (depositor defined):AID2097, AID2223, AID489010, AID492950]; format: functional
# T5 sequence (P9WHJ3 whole entry): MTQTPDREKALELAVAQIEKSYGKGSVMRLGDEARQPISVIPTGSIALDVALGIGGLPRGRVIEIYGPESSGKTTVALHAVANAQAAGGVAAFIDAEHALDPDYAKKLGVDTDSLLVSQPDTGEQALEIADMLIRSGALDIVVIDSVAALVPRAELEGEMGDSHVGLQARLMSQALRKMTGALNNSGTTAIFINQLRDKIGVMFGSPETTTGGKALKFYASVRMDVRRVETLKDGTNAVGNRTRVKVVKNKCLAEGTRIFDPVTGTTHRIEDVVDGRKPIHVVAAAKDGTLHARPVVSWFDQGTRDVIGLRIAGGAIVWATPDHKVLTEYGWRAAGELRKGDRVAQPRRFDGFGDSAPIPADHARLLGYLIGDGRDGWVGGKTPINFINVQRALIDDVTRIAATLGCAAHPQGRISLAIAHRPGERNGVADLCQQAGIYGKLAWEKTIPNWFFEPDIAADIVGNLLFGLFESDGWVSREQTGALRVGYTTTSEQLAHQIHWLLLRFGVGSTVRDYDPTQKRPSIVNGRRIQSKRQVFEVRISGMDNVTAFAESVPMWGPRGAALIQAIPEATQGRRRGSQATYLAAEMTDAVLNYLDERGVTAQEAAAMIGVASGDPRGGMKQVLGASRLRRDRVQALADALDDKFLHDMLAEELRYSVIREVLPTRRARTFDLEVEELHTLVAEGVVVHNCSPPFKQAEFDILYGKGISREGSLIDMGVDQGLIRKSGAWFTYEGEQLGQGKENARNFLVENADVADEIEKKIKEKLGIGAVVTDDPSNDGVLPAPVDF
# [5] = cytotoxicity toward NIH3T3 fibroblasts, dose response, counter-screen, cell-based, ATP luminescence, mouse fibroblasts (AID 2010); format: functional;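 note: cells exposed to compound for about 90 hours before reading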
# [6] = inhibitors of intracellular T. cruzi replication, confirmation, NIH3T3 host cells, beta-gal luminescence (AID 2044); format: functional, cell-based;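 note: intracellular parasites grown in NIH/3T3 mouse fibroblasts as host cells; luminescent beta-galactosidase reporter signal from transgenic T. cruzi replicating inside host cells; inhibitors lower the luminescence signal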
# Chain of Cytochrome P450 2D6 (P10635 whole entry): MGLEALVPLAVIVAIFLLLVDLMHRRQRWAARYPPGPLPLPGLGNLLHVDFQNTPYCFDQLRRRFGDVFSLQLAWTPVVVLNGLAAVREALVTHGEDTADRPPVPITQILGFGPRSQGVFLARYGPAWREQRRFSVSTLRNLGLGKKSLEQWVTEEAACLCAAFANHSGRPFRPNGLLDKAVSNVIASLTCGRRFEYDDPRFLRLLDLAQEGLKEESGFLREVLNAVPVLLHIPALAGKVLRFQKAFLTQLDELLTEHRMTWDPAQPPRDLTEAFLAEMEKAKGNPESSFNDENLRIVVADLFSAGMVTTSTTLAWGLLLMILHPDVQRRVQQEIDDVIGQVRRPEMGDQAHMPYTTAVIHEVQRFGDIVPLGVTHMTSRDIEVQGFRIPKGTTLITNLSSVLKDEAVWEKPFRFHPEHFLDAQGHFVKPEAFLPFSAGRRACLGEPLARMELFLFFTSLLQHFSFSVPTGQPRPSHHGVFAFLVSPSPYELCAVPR
# Chain of Cytochrome P450 2C9 (P11712 whole entry): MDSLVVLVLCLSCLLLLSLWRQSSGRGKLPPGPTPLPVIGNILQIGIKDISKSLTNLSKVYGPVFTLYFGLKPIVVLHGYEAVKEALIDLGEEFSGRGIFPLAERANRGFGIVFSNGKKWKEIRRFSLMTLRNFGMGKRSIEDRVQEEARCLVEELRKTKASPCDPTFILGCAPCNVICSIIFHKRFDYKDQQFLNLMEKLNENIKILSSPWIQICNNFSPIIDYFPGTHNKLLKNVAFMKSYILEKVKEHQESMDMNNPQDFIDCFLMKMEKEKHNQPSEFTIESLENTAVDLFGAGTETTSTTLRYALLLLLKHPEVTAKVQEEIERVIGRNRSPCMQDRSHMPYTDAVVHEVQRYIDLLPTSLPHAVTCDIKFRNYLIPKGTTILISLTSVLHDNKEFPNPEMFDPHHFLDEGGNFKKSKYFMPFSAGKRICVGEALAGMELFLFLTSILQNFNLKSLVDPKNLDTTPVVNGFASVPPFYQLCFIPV
# Chain of Cytochrome P450 3A4 (P08684 whole entry): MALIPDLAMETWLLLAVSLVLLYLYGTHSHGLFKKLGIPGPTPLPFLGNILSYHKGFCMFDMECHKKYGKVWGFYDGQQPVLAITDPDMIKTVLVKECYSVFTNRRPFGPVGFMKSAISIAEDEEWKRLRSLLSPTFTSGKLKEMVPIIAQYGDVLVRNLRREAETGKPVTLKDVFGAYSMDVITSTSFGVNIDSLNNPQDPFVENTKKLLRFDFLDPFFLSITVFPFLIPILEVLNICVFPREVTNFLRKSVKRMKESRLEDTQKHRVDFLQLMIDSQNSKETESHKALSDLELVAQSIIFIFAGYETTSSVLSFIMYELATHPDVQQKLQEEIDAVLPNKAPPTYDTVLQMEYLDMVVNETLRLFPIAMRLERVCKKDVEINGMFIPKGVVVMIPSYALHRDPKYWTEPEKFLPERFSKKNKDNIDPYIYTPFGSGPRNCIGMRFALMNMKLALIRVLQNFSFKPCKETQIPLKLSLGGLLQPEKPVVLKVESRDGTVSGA
# Chain of Cytochrome P450 2C19 (P33261 whole entry): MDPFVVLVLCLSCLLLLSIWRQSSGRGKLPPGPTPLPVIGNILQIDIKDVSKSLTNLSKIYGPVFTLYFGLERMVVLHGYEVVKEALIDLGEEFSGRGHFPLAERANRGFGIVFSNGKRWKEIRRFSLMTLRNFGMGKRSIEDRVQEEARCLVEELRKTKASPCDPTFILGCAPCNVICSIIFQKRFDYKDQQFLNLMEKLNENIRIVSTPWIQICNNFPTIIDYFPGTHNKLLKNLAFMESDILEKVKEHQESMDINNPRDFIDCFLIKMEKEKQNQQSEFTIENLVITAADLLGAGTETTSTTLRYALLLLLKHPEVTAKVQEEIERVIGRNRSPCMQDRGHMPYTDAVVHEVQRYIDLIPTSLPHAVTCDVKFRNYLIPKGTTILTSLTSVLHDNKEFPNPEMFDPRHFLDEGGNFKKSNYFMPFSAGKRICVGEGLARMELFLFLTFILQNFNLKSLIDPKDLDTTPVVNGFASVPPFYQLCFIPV
Structure (SMILES),AC50 (Cytochrome P450 2C9),EC50 (H4),EC50 [1],EC50 [3],also measured
O=C(CCCn1c(=S)[nH]c2cc3c(cc2c1=O)OCO3)N1CCN(c2ccccc2)CC1,0.0891 µM (inconclusive),–,–,–,AC50 (Cytochrome P450 2D6): 1.26 µM (inconclusive); AC50 (Cytochrome P450 1A2): 4.47 µM (inconclusive)
Cc1cccc(C)c1NC(=O)CSc1nc(C)c(CC(=O)c2ccc(Br)cc2)c(C)c1C#N,1.12 µM (inconclusive),–,–,–,AC50 (Cytochrome P450 2C19): 35.5 µM (inconclusive)
O=C(Nc1nnc(C2CCCCC2)s1)c1ccc(Br)s1,–,81.8 µM (active),11.6 µM (active),65.3 µM (active),EC50 (Streptococcus): > 150 µM (not active); EC50 (Streptokinase A): > 150 µM (not active); EC50 [2]: 6.45 µM (active)
Cc1ccc(-c2nc(N3CCOCC3)s[n+]2-c2ccccc2)cc1.[O-][Cl+3]([O-])([O-])[O-],–,31.5 µM (active),7.82 µM (active),7.52 µM (active),–
O=C(NCCN1CCN(Cc2ccccc2)CC1)C1CC(=O)N(C2CCCC2)C1 (centres undefined),0.398 µM (inconclusive),–,–,–,AC50 (Cytochrome P450 2D6): 14.1 µM (inconclusive)
COc1ccc2[nH]cc(C(=O)CN3CCC(C)CC3)c2c1,–,14.4 µM (active),5.71 µM (active),17.6 µM (active),–
COC(=O)c1[nH]c2cc(OC)ccc2c1NC(=O)c1nonc1C,1.26 µM (inconclusive),–,–,–,AC50 (Cytochrome P450 3A4): 7.08 µM (inconclusive); AC50 (Cytochrome P450 1A2): 0.794 µM (inconclusive)
O=C(Nc1c(C(=O)Nc2ccc3c(c2)OCCO3)cnn1-c1ccccc1Cl)c1ccco1,–,> 120 µM (not active),20 µM (active),20.5 µM (active),–
C/N=C(\c1ccc(C)cc1)n1c(=S)nc(-c2ccc(C)cc2)n(C)c1=S,–,21.3 µM (active),> 120 µM (not active),15.4 µM (active),–
COc1ccc(C(=O)N/N=C2/C(=O)c3c(C)cc(C)cc3CC2(C)C)cc1,6.31 µM (inconclusive),–,–,–,AC50 (Cytochrome P450 1A2): 5.01 µM (inconclusive)
O=C1N(c2ccccc2C(F)(F)F)O[C@@]1(c1ccccc1)C1CCCC1,–,–,–,–,CC50 (Vero): 21.6 µM (active)
C=C(C(=O)c1ccccc1)C(c1ccccc1)C(C)C(=O)c1ccccc1 (centres undefined),–,–,–,–,CC50 (Vero): 17.8 µM (active)
Cc1ccc2nc(NC(=O)COC(=O)c3ccncc3)sc2c1,–,11.4 µM (active),> 120 µM (not active),> 120 µM (not active),–
COC(=O)c1c(NC(=O)/C=C/C(=O)O)sc(C)c1-c1ccc(C)c(C)c1,–,–,–,–,IC50 (Leucine aminopeptidase): 35.6 µM (active); AC50 [4]: 15.1 µM (active); EC50 (Protein RecA): 5.69 µM (active)
CCc1nc(SCC(=O)N2CCCc3ccccc32)c2oc3ccccc3c2n1,4.47 µM (inconclusive),–,–,–,AC50 (Cytochrome P450 2D6): 20 µM (inconclusive)
O=C(O)/C=C\c1ccc(O)c(O)c1,15.8 µM (inconclusive),–,–,–,–
CN(C(=O)c1ccc(OC2CCN(CCc3ccccc3)CC2)cc1)C1CCCCC1,–,> 120 µM (not active),13.3 µM (active),18.5 µM (active),–
CCOC(=O)c1cnc(-n2nc(C)cc2C)nc1NCCO,20 µM (inconclusive),–,–,–,AC50 (Cytochrome P450 3A4): 25.1 µM (inconclusive); AC50 (Cytochrome P450 1A2): 14.1 µM (inconclusive)
Cc1ccc2[nH]c(C3CCCN(C(S)=Nc4ccccc4C)C3)nc2c1 (centres undefined),3.16 µM (inconclusive),–,–,–,EC50 [5]: > 60 µM (not active); EC50 [6]: 0.443 µM (active); AC50 (Cytochrome P450 2C19): 1.41 µM (inconclusive)
Cn1c(CCNC(=O)c2cccs2)nnc1SCC(=O)Nc1nc(-c2ccccc2)cs1,–,27.3 µM (active),> 120 µM (not active),24.5 µM (active),–
